The values below are quoted from earlier work in paper PMC13379419, “Integrating high-fidelity hiPSC-cardiomyocytes with AI-driven modeling for enhanced proarrhythmic risk assessment” (Archives of Toxicology, 2026).

By Cmax is commonly meant the peak of the concentration-time curve.

Each structure is given as a SMILES string.

On the set-up of the data set: method as in none printed. Particulars: clinical maximum plasma concentration.

Regarding `C=C[C@H]1C[N@@]2CC[C@H]1C[C@@H]2[C@@H](O)c1ccnc2ccc(OC)cc12` [Quinidine], the Cmax is 3000 nM.
